The values below are quoted from earlier work in patent US20050227929A1, “Combination therapy comprising a Cox-2 inhibitor and an antineoplastic agent” (priority 2003, published 2005).

For data set [1] the following is noted: human, in vivo.
Data set [2] concerns tumors. The settings on record: tumor-bearing mice received 225-300 μg/kg over 5 days.

Like-named read-outs stand apart in the source and are kept apart here. Where a SMILES comes first, the peptide text is derived from it.

Regarding `CC(C)[C@H]1C(=O)N[C@@H](CCCN=C(N)N)C(=O)NCC(=O)N[C@@H](CC(=O)O)C(=O)N[C@H](Cc2ccccc2)C(=O)N1C` [cilengitide, cyclo(L-arginylglycyl-L-alpha-aspartyl-D-phenylalanyl-N-methyl-L-valyl)], the Toxicity result in data set [1] is “well tolerated and safe”.

Take `Cc1occc(=O)c1[O-].Cc1occc(=O)c1[O-].Cc1occc(=O)c1[O-].[Ga+3]` [gallium maltolate]: the Toxicity result (in vivo) is on record as “good safety”.

Consider `COc1ccc(NS(=O)(=O)c2c(F)c(F)c(F)c(F)c2F)cc1F` [T138067, 2,3,4,5,6-pentafluoro-N-(3-fluoro-4-methoxyphenyl)benzenesulfonamide], for which, for the setting “up to 440 mg/m^2 by 3-hour infusion every 4 weeks”, the “Dosage: tolerability” value is recorded as “well tolerated”.

`N[C@@H](CCC(=O)O)C(=O)N[C@@H](Cc1c[nH]c2ccccc12)C(=O)O` [IM 862, L-alpha-glutamyl-L-tryptophan] (H-Glu-Trp-OH): the Toxicity entry (in vivo) is on record as “no hematological”.

For `CNC(=O)c1cc(Oc2ccc(NC(=O)Nc3ccc(Cl)c(C(F)(F)F)c3)cc2)ccn1` [BAY-439006], under “dosage listed: 50-400 mg/day”, the Toxicity entry is given as “well tolerated”.

For `Nc1ccn([C@@H]2O[C@H](CO)[C@@H](O)/C2=C\F)c(=O)n1` [tezacitabine], the Toxicity entry in data set [1] is “generally”.

Regarding `O=S1(=O)CCN(CN2CCS(=O)(=O)NC2)CN1` [taurolidine, 4,4′-methylenebis[tetrahydro-2H-1,2,4-thiadiazine]1,1,1′,1′-tetraoxide], the “Dosage: tolerability” value (in vivo, 350 mg/kg/day) is “well tolerated”.

Consider `Cc1ccc2nc(N)[nH]c(=O)c2c1Sc1ccncc1` [nolatrexed, 2-amino-6-methyl-5-(4-pyridinylthio)-4(1H)-quinazolinone], for which the “Dosage: tolerability” value in data set [1] was “tumors is well”.

B1: SB-408075 (conjugate, chains of the INN, looked up)
VH: QVQLVQSGAEVKKPGETVKISCKASDYTFTYYGMNWVKQAPGQGLKWMGWIDTTTGEPTYAQKFQGRIAFSLETSASTAYLQIKSLKSEDTATYFCARRGPYNWYFDVWGQGTTVTVSS
VL: DIVMTQSPLSVPVTPGEPVSISCRSSKSLLHSNGNTYLYWFLQRPGQSPQLLIYRMSNLVSGVPDRFSGSGSGTAFTLRISRVEAEDVGVYYCLQHLEYPFTFGPGTKLELK
modifications: DM1 maytansinoid payload
For the molecule B1, in data set [2], the “complete responses seen in % of animals” value is reported as “in 100% of”.
